Like-named read-outs stand apart in the source and are kept apart here.
Key:
Parameters in all cases: species or system AML cell lines (8); Primary HTS, single concentration about 10 uM, Cell Titer Glo viability; log10 luminescence, per cent inhibition relative to cycloheximide control
Conditions in all cases: 72 h, inhibitor
[1] = system: CMS
[2] = system: MOLM-13
[3] = system: M07e
[4] = system: CHRF288-11
[5] = system: U937
[6] = system: CMK
[7] = system: ML-2
[8] = system: MV4-11
[9] = relative to cycloheximide control, log10 luminescence

Compound	CMS %inh [1, 9] [%]	MOLM-13 %inh [2, 9] [%]	M07e %inh [3, 9] [%]	CHRF288-11 %inh [4, 9] [%]	U937 %inh [5, 9] [%]	CMK %inh [6, 9] [%]	ML-2 %inh [7, 9] [%]	MV4-11 %inh [8, 9] [%]	also measured
NS(=O)(=O)c1ccc(Nc2cc(-c3cccc(O)c3)n[nH]2)cc1 [SJ000573324-1, T350/111/20]	0.8193	21.76	-0.9399	-4.339	-2.304	-2.15	1.059	18.96	–
O=C1Nc2ccccc2C1=C1CCc2cc(O)ccc21 [SJ000573309-1, C1338/186/2]	4.291	102.5	0.9027	18.33	12.06	25.36	4.662	57.39	–
O=C1NC(=N[C@H](CO)Cc2ccccc2)S/C1=C\c1ccc2ncccc2c1 [SJ000581019-2]	2.2	1.796	7.526	7.52	7.541	5.29	1.703	1.969	–
COc1cc2ncn(-c3cc(O[C@@H](C)c4ccccc4Cl)c(C(N)=O)s3)c2cc1OC [SJ000573003-1, U20723/53/1 | U20723/56/1]	40.55	83.64	89.94	52.73	74.14	79.08	43.99	67.89	–
C[C@@H](Oc1cc(-n2cnc3ccc(OC4CCN(C)CC4)cc32)sc1C(N)=O)c1ccccc1Cl [SJ000573015-1, U20958/186/1]	56.77	100.2	91.2	79.26	71	85.68	28.2	65.04	–
Cc1nnc(-c2cccc(-c3ccc(C(=O)NCC4CC4)cc3)c2)o1 [SJ000573288-1, N5058-19-3]	-1.146	2.072	0.8786	-4.251	-1.478	3.578	2.007	-0.4477	–
Cc1[nH]c(/C=C2\C(=O)Nc3ccccc32)c(C)c1CCC(=O)O [SJ000556685-2, ORANTINIB | SU-6668 | TSU-68 | TSU-68 (SU6668, ORANTINIB)]	12.46	33.6	0.796	14.71	4.629	1.601	2.987	14.82	–
O=[N+]([O-])c1ccc2c(c1)C(c1ccccc1Cl)=Nc1cn[nH]c1N2 [SJ000581083-1]	-0.274	-2.48	4.12	-0.2746	-1.165	-5.045	-0.08337	0.3353	–
NS(=O)(=O)c1ccc(Nc2ncc(-c3ccccc3)o2)cc1 [SJ000573303-1, U14961/32/1]	–	–	–	–	–	–	–	–	CMS %inh ([1]; 10 µM): 6.689%; MOLM-13 %inh ([2]; 10 µM): 74.24%; M07e %inh ([3]; 10 µM): 5.73%; CHRF288-11 %inh ([4]; 10 µM): 3.992%; U937 %inh ([5]; 10 µM): 6.622%; CMK %inh ([6]; 10 µM): 30.97%; ML-2 %inh ([7]; 10 µM): 4.386%; MV4-11 %inh ([8]; 10 µM): 64.71%
Nc1nccc(-c2c(-c3ccc(F)cc3)ncn2C2CCNCC2)n1 [SJ000573168-2, JB-19127-269D | LD19161-244A1]	–	–	16.87	–	–	–	–	–	CMS %inh ([1]; relative to cycloheximide control, log10 luminescence, CMS %inh, 10 µM): 15.45%; MOLM-13 %inh ([2]; relative to cycloheximide control, log10 luminescence, MOLM-13 %inh, 10 µM): 78.79%; CHRF288-11 %inh ([4]; relative to cycloheximide control, log10 luminescence, CHRF288-11 %inh, 10 µM): 101.4%; U937 %inh ([5]; relative to cycloheximide control, log10 luminescence, U937 %inh, 10 µM): 15.47%; CMK %inh ([6]; relative to cycloheximide control, log10 luminescence, CMK %inh, 10 µM): 34.82%; ML-2 %inh ([7]; relative to cycloheximide control, log10 luminescence, ML-2 %inh, 10 µM): 28.94%; MV4-11 %inh ([8]; relative to cycloheximide control, log10 luminescence, MV4-11 %inh, 10 µM): 54.74%
N#Cc1ccc2c(-c3ccnc(NC4CC4)n3)c(-c3ccc(F)cc3)nn2c1 [SJ000573143-1, U15304/34/1]	2.587	2.3	7.135	-0.1104	0.4809	2.803	1.142	-1.164	–
Cn1cc(C2=C(c3c4n(c5ccccc35)CCCC4)C(=O)NC2=O)c2ccccc21 [SJ000580963-1]	9.345	2.901	29.09	3.717	27.07	59.12	20.63	8.237	–
COc1cc(Nc2ncc(-c3ccccc3)o2)cc(OC)c1OC [SJ000573009-1, U21834/26/1]	12.03	93.46	25.07	41.65	48.56	106.1	46.26	70.39	–
CN1CCN(C(=O)c2ccc(NC(=O)Nc3ccc(N(C)c4ccnc(Nc5ccc(CS(C)(=O)=O)cc5)n4)cc3)cc2)CC1 [SJ000573056-1, U17983/92/5]	-2.808	94.26	-6.05	0.03637	5.393	6.346	10.8	82.16	–
COC(=O)c1ccc2c(c1)C(=Cc1cc(Br)c(O)c(Br)c1)C(=O)N2 [SJ000573242-1, U8097/138/1]	10.7	7.69	3.423	6.512	4.474	10.16	8.878	16.92	–
NC(=O)c1cccc(Nc2nccc(Nc3cccc(F)c3)n2)c1 [SJ000573164-1, R5869/121/5]	5.376	57.29	12.07	8.575	1.036	19.08	3.111	21.87	–
CCCCNC(=O)NS(=O)(=O)c1ccc(C)cc1 [SJ000285613-7, TOLBUTAMIDE]	0.8795	-1.699	-0.3777	-1.378	-1.884	-3.705	1.608	0.676	–

Source: article PMC6522510 (Nature Communications, 2019)
